The values that follow come from patent US20140296338A1, “PROPHYLACTIC AND/OR THERAPEUTIC AGENT FOR CARDIOVASCULAR COMPLICATIONS OF DIABETES” (priority 2011, published 2014).

The test deals with dermal fibroblast. In words: Influence of fatty acids on intracellular neutral lipid content of dermal fibroblast from diabetic patient, enzyme assay. It is filed as cell-based, human. On the set-up: Intracellular TG-decreasing activity: scale not given here. As to conditions: for Intracellular TG-decreasing activity: based on part of the results in FIG. 4 and FIG. 5; for Activity to decrease intracellular TG: comparison of medium-chain fatty acids (FIG. 5); for Intracellular TG (neutral lipid) content: fatty acid added at 50 and 500 μM, cells collected 2 days later, versus no fatty acid (FIG. 4). An excerpt:
With the consent of the diabetic patient in Example 3, part of dermal tissue was harvested and was then subjected to primary culture (culture medium: DMEM/10% FBS) by Explant method, followed by repeated subculture to give a cell line. The resulting dermal fibroblast was examined for the influence of various fatty acids on an intracellular neutral lipid content. Specifically, the dermal specimen harvested from the patient was subjected to an in vitro enzyme assay using various fatty acids to measure an intracellular neutral lipid content. The enzyme assay was performed using a triglyceride quantification kit (manufacturer: BioVision, Inc., product code: K622-100). […] To the patient's cells, the various fatty acids were added, and 2 days later, the cells were collected. In the figures, (-) is a specimen to which no fatty acid was added (cultured as a control in DMEM/10% FBS alone). C16:0 is palmitic acid, C18:1 is oleic acid, C18:2 is linoleic acid, C20:4 is arachidonic acid, C20:5 is eicosapentaenoic acid (EPA), C7:0 is heptanoic acid, C8:0 is caprylic acid, and C10:0 is capric acid.

Consider `CC(C)CCCCCCC(=O)O` [8-methylnonanoic acid], for which the “Intracellular TG-decreasing activity” value is listed as 100 and the “Activity to decrease intracellular TG” value was “great activity to decrease TG”.
For the compound `CCCCCCCCCC(=O)O` [capric acid], the “Intracellular TG-decreasing activity” value is 100, the “Activity to decrease intracellular TG” value is “great activity to decrease TG” and the “Intracellular TG (neutral lipid) content” value was “decreased”.
With `CCCCCCCC(=O)O` [caprylic acid], the “Intracellular TG-decreasing activity” value was found to be 5.
With `CCCCCCC(=O)O` [heptanoic acid, reference compound], the “Intracellular TG-decreasing activity” value is given as 0 and the “Intracellular TG (neutral lipid) content” value was “increased”.
